Patent US20230265116A1, “DEGRADATION OF (EGFR) BY CONJUGATION OF EGFR INHIBITORS WITH E3 LIGASE LIGAND AND METHODS OF USE” (BEIGENE, LTD., priority 2020, published 2023)

Columns and labels:
Format in all cases: cell-based
[1] = target: T1, EGFR L858R/T790M/C797S (BaF3-LTC cells) (Homo sapiens, UniProt P00533, C797S/L858R/T790M); assay: EGFR degradation HTRF assay, BaF3-LTC cells; settings: BaF3-LTC cells; for DC50: EGFR degradation, IC50 (DC50) from curve fit, read-out: DC50(nM) BaF3-LTC; for Dmax: maximum percentage of inhibition (degradation), read-out: Dmax (%) BaF3-LTC
T1 construct: expressed in transfected cells; host or cells: BaF3
Summary of the method: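 Cells treated 16 h at 37 °C, 5% CO2 in medium with 0.2% DMSO; top final concentration 10 uM, 5-fold dilution, 8 doses. Lysates read by HTRF (665/620 nm); degradation % versus DMSO high control, DC50 from four-parameter fit, Dmax as maximal degradation.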

[2] = system: EGFR Del19/T790M/C797S (H1975-clone #28); assay: EGFR degradation HTRF assay, H1975-clone #28 DTC cells; settings: H1975 # 28 DTC cells; for DC50: EGFR degradation, IC50 (DC50) from curve fit, read-out: DC50(nM) H1975 # 28 DTC; for Dmax (%) H1975 # 28 DTC: maximum percentage of inhibition (degradation)
Summary of the method: (§1)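 H1975 clones stably overexpressing mutant EGFR, with endogenous EGFR knocked out by sgRNA and homozygosity confirmed by sequencing, were treated 16h at 37° C. with compounds in 0.2% DMSO (top final 10 uM, 5-fold, 8 doses). Lysates were read by HTRF (665/620 nm); DC50 and Dmax came from fitting % degradation versus DMSO control.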

[3] = system: EGFR Del19/C797S (H1975-clone #23); assay: EGFR degradation HTRF assay, H1975-clone #23 DC cells; settings: 16h treatment; for H1975 #23 DC Dmax (%): maximum percentage of degradation; for DC50: H1975 #23 DC, read-out: H1975 #23 DC DC50
Summary of the method: as §1

[4] = target: T2, EGFR L858R/C797S (BaF3 LC cells) (Homo sapiens, UniProt P00533, C797S/L858R); assay: EGFR degradation HTRF assay, BaF3 LC cells; settings: BaF3 LC, 16h treatment; for DC50: read-out: BaF3 LC DC50; for Dmax: maximum percentage of degradation, read-out: BaF3 LC Dmax (%)
T2 construct: expressed in transfected cells; host or cells: BaF3
T2 sequence (P00533 25-1210 C797S/L858R): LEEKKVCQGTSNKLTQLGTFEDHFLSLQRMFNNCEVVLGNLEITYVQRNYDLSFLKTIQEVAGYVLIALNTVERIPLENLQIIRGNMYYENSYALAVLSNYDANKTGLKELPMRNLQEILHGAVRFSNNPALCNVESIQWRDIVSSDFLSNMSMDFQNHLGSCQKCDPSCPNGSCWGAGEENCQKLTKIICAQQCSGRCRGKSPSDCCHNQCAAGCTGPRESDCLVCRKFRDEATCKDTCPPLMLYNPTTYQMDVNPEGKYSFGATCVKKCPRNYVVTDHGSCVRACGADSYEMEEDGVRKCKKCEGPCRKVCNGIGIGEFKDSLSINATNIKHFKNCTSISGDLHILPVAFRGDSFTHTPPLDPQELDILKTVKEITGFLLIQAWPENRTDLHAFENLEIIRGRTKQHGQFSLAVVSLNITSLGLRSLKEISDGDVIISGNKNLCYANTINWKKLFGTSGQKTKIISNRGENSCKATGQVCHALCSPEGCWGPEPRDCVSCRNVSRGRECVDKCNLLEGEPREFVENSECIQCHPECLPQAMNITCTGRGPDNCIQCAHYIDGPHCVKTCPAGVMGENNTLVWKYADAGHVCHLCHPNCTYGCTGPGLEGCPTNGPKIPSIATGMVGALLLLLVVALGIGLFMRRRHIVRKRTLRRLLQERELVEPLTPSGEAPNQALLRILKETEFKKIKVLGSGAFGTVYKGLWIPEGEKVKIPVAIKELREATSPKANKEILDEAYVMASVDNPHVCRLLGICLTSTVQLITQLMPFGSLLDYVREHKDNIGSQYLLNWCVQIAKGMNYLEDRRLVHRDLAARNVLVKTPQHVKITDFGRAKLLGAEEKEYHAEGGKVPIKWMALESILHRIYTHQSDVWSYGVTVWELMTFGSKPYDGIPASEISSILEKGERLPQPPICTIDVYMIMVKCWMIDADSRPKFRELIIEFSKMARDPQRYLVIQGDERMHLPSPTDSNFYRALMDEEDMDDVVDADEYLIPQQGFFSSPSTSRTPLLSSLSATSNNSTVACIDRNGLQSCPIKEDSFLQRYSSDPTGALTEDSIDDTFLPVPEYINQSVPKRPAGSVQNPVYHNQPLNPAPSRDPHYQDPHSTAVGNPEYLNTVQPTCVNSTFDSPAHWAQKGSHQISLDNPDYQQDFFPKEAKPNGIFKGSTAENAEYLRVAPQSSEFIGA

T1 sequence (P00533 25-1210 T790M/C797S/L858R): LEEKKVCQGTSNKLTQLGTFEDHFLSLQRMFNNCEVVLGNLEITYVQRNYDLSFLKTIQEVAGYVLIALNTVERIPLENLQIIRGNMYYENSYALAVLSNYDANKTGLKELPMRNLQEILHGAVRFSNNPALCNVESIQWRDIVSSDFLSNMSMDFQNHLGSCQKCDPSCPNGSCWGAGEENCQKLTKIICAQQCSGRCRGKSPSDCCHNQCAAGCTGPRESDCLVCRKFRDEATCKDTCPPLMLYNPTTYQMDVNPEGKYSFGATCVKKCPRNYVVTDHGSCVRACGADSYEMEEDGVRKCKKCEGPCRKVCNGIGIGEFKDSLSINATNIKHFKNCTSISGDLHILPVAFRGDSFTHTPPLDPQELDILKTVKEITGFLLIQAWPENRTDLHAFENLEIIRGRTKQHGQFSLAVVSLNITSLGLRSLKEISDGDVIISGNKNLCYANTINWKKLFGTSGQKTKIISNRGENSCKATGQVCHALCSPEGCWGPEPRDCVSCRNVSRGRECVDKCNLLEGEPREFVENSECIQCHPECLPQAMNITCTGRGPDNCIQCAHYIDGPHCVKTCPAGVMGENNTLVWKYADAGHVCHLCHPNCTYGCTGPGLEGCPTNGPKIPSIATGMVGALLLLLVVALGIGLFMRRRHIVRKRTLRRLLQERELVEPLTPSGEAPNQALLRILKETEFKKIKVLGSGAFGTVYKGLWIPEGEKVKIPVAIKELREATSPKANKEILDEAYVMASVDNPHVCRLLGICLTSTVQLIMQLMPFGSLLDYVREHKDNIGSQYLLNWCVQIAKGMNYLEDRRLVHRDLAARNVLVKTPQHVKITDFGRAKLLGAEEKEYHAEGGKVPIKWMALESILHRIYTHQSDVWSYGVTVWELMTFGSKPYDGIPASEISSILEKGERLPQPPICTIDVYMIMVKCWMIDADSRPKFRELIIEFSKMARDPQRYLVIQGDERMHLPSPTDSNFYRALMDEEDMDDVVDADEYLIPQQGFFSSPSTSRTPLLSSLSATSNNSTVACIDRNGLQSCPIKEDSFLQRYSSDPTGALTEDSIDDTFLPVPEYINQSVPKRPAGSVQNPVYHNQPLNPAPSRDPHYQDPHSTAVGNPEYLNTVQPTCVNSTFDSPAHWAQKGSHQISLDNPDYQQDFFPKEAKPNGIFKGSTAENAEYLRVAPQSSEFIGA

CCOc1cc(N2CCC(N3CCN(CCc4cc(F)c([C@H]5CCC(=O)NC5=O)c(F)c4)CC3)CC2)c(CC)cc1Nc1ncc(Br)c(Nc2ccc3nc(CC)ncc3c2P(C)(C)=O)n1 [Example 460, (R)-3-(4-(2-(4-(1-(4-((5-bromo-4-((5-(dimethylphosphoryl)-2-ethylquinazolin-6-yl)amino)pyrimidin-2-yl)amino)-5-ethoxy-2-ethylphenyl)piperidin-4-yl)piperazin-1-yl)ethyl)-2,6-difluorophenyl)piperidine-2,6-dione] was tested, and the DC50 [1] was 16.4 nM, the DC50 [2] was 2.43 nM and the “Dmax (%) H1975 # 28 DTC” value [2] was 86%. For the same molecule, the “H1975 #23 DC Dmax (%)” value [3] was 82.75%, the DC50 [3] was 3.11 nM and the DC50 [4] was 37.3 nM.
In the case of CCc1cc(Nc2ncc(Br)c(Nc3ccc4nc(NC(=O)C5CC5)ccc4c3P(C)(C)=O)n2)c(OC)cc1N1CCC(N2CCN(C(=O)[C@@H]3CCN(c4cc(F)c([C@H]5CCC(=O)NC5=O)c(F)c4)C3)CC2)CC1 [Example 587, N-(6-((5-bromo-2-((4-(4-(4-((R)-1-(4-((R)-2,6-dioxopiperidin-3-yl)-3,5-difluorophenyl)pyrrolidine-3-carbonyl)piperazin-1-yl)piperidin-1-yl)-5-ethyl-2-methoxyphenyl)amino)pyrimidin-4-yl)amino)-5-(dimethylphosphoryl)quinolin-2-yl)cyclopropanecarboxamide], the DC50 [1] is reported as 2.19 nM, the Dmax [1] is reported as 89.2% and the DC50 [2] is reported as 0.765 nM. For the same molecule, the “Dmax (%) H1975 # 28 DTC” value [2] was 87.02%, the “H1975 #23 DC Dmax (%)” value [3] was 87.43% and the DC50 [3] was 6.14 nM. For the same molecule, the Dmax [4] was 87.8% and the DC50 [4] was 14.6 nM.
CCOc1cc(N2CCC(N3CCN(CCc4cccc5c4oc(=O)n5C4CCC(=O)NC4=O)CC3)CC2)c(CC)cc1Nc1ncc(Br)c(Nc2cc(F)c3nc(CC)ccc3c2P(C)(C)=O)n1 (centres unmarked) [Example 493, 3-(7-(2-(4-(1-(4-((5-bromo-4-((5-(dimethylphosphoryl)-2-ethyl-8-fluoroquinolin-6-yl)amino)pyrimidin-2-yl)amino)-5-ethoxy-2-ethylphenyl)piperidin-4-yl)piperazin-1-yl)ethyl)-2-oxobenzo[d]oxazol-3 (2H)-yl)piperidine-2,6-dione] was tested, and the DC50 [1] was 2.71 nM, the DC50 [2] was 0.588 nM and the “Dmax (%) H1975 # 28 DTC” value [2] was 70.43%. The “H1975 #23 DC Dmax (%)” value [3] was 63.11%, the DC50 [3] was 11.2 nM and the DC50 [4] was 24.3 nM.
In the case of CCOc1cc(N2CCC(N3CCN(CCc4cccc5c4C(C)(C)C(=O)N5C4CCC(=O)NC4=O)CC3)CC2)c(CC)cc1Nc1ncc(Br)c(Nc2ccc3c(=O)n(CC)ncc3c2P(C)(C)=O)n1 (centres unmarked) [Example 501, 3-(4-(2-(4-(1-(4-((5-bromo-4-((5-(dimethylphosphoryl)-2-ethyl-1-oxo-1,2-dihydrophthalazin-6-yl)amino)pyrimidin-2-yl)amino)-5-ethoxy-2-ethylphenyl)piperidin-4-yl)piperazin-1-yl)ethyl)-3,3-dimethyl-2-oxoindolin-1-yl)piperidine-2,6-dione], the DC50 [1] is reported as 3.34 nM, the DC50 [2] is reported as 0.759 nM and the “Dmax (%) H1975 # 28 DTC” value [2] is reported as 85.93%. The “H1975 #23 DC Dmax (%)” value [3] was 65.52%, the DC50 [3] was 3.29 nM and the DC50 [4] was 1.49 nM.
With CCOc1cc(N2CCC(N3CCN(C(=O)[C@@H]4CCN(c5cc(F)c([C@H]6CCC(=O)NC6=O)c(F)c5)C4)CC3)CC2)c(CC)cc1Nc1ncc(Br)c(Nc2ccc3nc(C)c(F)cc3c2P(C)(C)=O)n1 [Example 577, (R)-3-(4-((R)-3-(4-(1-(4-((5-bromo-4-((5-(dimethylphosphoryl)-3-fluoro-2-methylquinolin-6-yl)amino)pyrimidin-2-yl)amino)-5-ethoxy-2-ethylphenyl)piperidin-4-yl)piperazine-1-carbonyl)pyrrolidin-1-yl)-2,6-difluorophenyl)piperidine-2,6-dione] the DC50 [1] was 8.4 nM, the DC50 [2] was 1.08 nM and the “Dmax (%) H1975 # 28 DTC” value [2] was 87.91%. For the same molecule, the “H1975 #23 DC Dmax (%)” value [3] was 64.13%, the DC50 [3] was 7.94 nM and the DC50 [4] was 53.8 nM.
In the case of CCOc1cc(N2CCC(N3CCN(CCc4cc(F)c([C@H]5CCC(=O)NC5=O)c(F)c4)CC3)CC2)c(CC)cc1Nc1ncc(Br)c(Nc2ccc3c(=O)n(C)ncc3c2P(C)(C)=O)n1 [Example 502, (R)-3-(4-(2-(4-(1-(4-((5-bromo-4-((5-(dimethylphosphoryl)-2-methyl-1-oxo-1,2-dihydrophthalazin-6-yl)amino)pyrimidin-2-yl)amino)-5-ethoxy-2-ethylphenyl)piperidin-4-yl)piperazin-1-yl)ethyl)-2,6-difluorophenyl)piperidine-2,6-dione], the DC50 [1] is reported as 3.02 nM, the DC50 [2] is reported as 0.404 nM and the “Dmax (%) H1975 # 28 DTC” value [2] is reported as 88.96%. For the same molecule, the “H1975 #23 DC Dmax (%)” value [3] was 75.93%, the DC50 [3] was 5.49 nM and the DC50 [4] was 57.2 nM.
For CCc1ccc2c(P(C)(C)=O)c(Nc3nc(Nc4cc(CC)c(N5CCC(N6CCN(C(=O)[C@H]7CN(c8cc(F)c([C@H]9CCC(=O)NC9=O)c(F)c8)CC7(C)C)CC6)CC5)cc4OC)ncc3Br)ccc2n1 [Example 754, (R)-3-(4-((R)-4-(4-(1-(4-((5-bromo-4-((5-(dimethylphosphoryl)-2-ethylquinolin-6-yl)amino)pyrimidin-2-yl)amino)-2-ethyl-5-methoxyphenyl)piperidin-4-yl)piperazine-1-carbonyl)-3,3-dimethylpyrrolidin-1-yl)-2,6-difluorophenyl)piperidine-2,6-dione], the DC50 [1] was 13.4 nM, the DC50 [2] was 3.22 nM and the “Dmax (%) H1975 # 28 DTC” value [2] was 86.62%. For the same molecule, the “H1975 #23 DC Dmax (%)” value [3] was 71.73%, the DC50 [3] was 5.6 nM and the DC50 [4] was 36.1 nM.
Work on CCc1cc(Nc2ncc(Br)c(Nc3ccc4c(=O)n(C5CC5)ncc4c3P(C)(C)=O)n2)c(OC)cc1N1CCC(N2CCN(CCc3cc(F)c(C4CCC(=O)NC4=O)c(F)c3)CC2)CC1 (centres unmarked) [Example 521, 3-(4-(2-(4-(1-(4-((5-bromo-4-((2-cyclopropyl-5-(dimethylphosphoryl)-1-oxo-1,2-dihydrophthalazin-6-yl)amino)pyrimidin-2-yl)amino)-2-ethyl-5-methoxyphenyl)piperidin-4-yl)piperazin-1-yl)ethyl)-2,6-difluorophenyl)piperidine-2,6-dione] yielded a DC50 [1] of 17 nM, a Dmax [1] of 87.4% and a DC50 [2] of 1.01 nM. The “Dmax (%) H1975 # 28 DTC” value [2] was 80.24%, the “H1975 #23 DC Dmax (%)” value [3] was 75.56% and the DC50 [3] was 5.9 nM. The Dmax [4] was 74.6% and the DC50 [4] was 51.6 nM.
In the case of CCOc1cc(N2CCC(N3CCN(CCc4cc(F)c([C@H]5CCC(=O)NC5=O)c(F)c4)CC3)CC2)c(CC)cc1Nc1ncc(Br)c(Nc2ccc3nc(CC)ccc3c2P(C)(C)=O)n1 [Example 483, (R)-3-(4-(2-(4-(1-(4-((5-bromo-4-((5-(dimethylphosphoryl)-2-ethylquinolin-6-yl)amino)pyrimidin-2-yl)amino)-5-ethoxy-2-ethylphenyl)piperidin-4-yl)piperazin-1-yl)ethyl)-2,6-difluorophenyl)piperidine-2,6-dione], the DC50 [1] is reported as 26.6 nM, the DC50 [2] is reported as 2.02 nM and the “Dmax (%) H1975 # 28 DTC” value [2] is reported as 81.31%. For the same molecule, the “H1975 #23 DC Dmax (%)” value [3] was 70.71%, the DC50 [3] was 7.19 nM and the DC50 [4] was 69 nM.
With CCOc1cc(N2CCC(N3CCN(CCc4cc5oc(=O)n(C6CCC(=O)NC6=O)c5cc4F)CC3)CC2)c(CC)cc1Nc1ncc(Br)c(Nc2ccc3nc(CC)ccc3c2P(C)(C)=O)n1 (centres unmarked) [Example 492, 3-(6-(2-(4-(1-(4-((5-bromo-4-((5-(dimethylphosphoryl)-2-ethylquinolin-6-yl)amino)pyrimidin-2-yl)amino)-5-ethoxy-2-ethylphenyl)piperidin-4-yl)piperazin-1-yl)ethyl)-5-fluoro-2-oxobenzo[d]oxazol-3(2H)-yl)piperidine-2,6-dione] the DC50 [1] was 3.39 nM, the Dmax [1] was 95.5% and the DC50 [2] was 0.605 nM. For the same molecule, the “Dmax (%) H1975 # 28 DTC” value [2] was 70.88%, the “H1975 #23 DC Dmax (%)” value [3] was 51.44% and the DC50 [3] was 3.07 nM. It also gave a Dmax [4] of 79.5% and a DC50 [4] of 4.28 nM.
Molecule CCc1cc(Nc2ncc(Br)c(Nc3cc(F)c4nc(C)ccc4c3P(C)(C)=O)n2)c(OC)cc1N1CCC(N2CCN(C(=O)[C@@H]3CCN(c4cc(F)c([C@H]5CCC(=O)NC5=O)c(F)c4)C3)CC2)CC1 [Example 511, (R)-3-(4-((R)-3-(4-(1-(4-((5-bromo-4-((5-(dimethylphosphoryl)-8-fluoro-2-methylquinolin-6-yl)amino)pyrimidin-2-yl)amino)-2-ethyl-5-methoxyphenyl)piperidin-4-yl)piperazine-1-carbonyl)pyrrolidin-1-yl)-2,6-difluorophenyl)piperidine-2,6-dione] has a DC50 [1] of 10.6 nM, a Dmax [1] of 92.5% and a DC50 [2] of 1.04 nM. For the same molecule, the “Dmax (%) H1975 # 28 DTC” value [2] was 65%, the “H1975 #23 DC Dmax (%)” value [3] was 67.01% and the DC50 [3] was 3.3 nM. The Dmax [4] was 88.9% and the DC50 [4] was 9.67 nM.
